# Biological target: CDK12/CycK (Homo sapiens, UniProt Q9NYV4)
# Test: CDK12/CycK high ATP kinase assay (TR-FRET, 2 mM ATP)
# Format: biochemical
# Details: 2 mM ATP (high ATP); median; read-out: CDK12/CyclinK, 2 mM ATP (high ATP), IC50-[mol/l] (median)
# Procedure, shortened: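 His-tagged human CDK12/CycK (~0.75 nM) pre-incubated 15 min with compound, then 60 min at 22 °C with 2 mM ATP and 1 µM biotinylated peptide (HEPES pH 7.5, 20 mM MgCl2). EDTA stop; phospho-Ser62 antibody/Eu anti-rabbit and streptavidin-XL665 TR-FRET, 665/620 nm ratio normalised to give IC50.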
# Chain of CDK12/CycK (Q9NYV4 with tags, fused parts or gaps): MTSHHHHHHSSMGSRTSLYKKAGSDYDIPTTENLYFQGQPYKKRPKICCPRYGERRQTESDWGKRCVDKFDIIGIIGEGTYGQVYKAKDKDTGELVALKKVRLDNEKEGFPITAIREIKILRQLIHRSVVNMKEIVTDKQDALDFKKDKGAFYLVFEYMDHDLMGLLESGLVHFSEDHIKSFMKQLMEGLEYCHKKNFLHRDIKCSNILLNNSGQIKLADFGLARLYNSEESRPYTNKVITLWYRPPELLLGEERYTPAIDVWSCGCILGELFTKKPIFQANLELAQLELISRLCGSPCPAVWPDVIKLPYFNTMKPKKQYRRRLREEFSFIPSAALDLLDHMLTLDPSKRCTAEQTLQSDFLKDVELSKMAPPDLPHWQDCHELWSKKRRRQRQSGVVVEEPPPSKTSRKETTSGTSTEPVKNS
# Chain of CDK12/CycK (O75909 1-300 partner limits assumed): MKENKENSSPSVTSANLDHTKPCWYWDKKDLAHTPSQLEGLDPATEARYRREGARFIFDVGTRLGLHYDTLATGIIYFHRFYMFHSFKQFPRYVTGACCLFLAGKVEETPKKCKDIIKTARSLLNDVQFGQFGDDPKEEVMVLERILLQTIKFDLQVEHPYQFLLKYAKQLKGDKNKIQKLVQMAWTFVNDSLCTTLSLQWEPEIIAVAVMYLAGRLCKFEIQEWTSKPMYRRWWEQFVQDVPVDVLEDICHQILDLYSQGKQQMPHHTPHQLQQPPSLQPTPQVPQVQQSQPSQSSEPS
row,IC50 [µM],SMILES
1,0.19,"FC(F)(F)c1cnn2c(NCc3nc4cc(Cl)c(Cl)cc4[nH]3)nc(N3CCOCC3)nc12 [Example 332, N-[(5,6-dichloro-1H-benzimidazol-2-yl)methyl]-2-(morpholin-4-yl)-8-(trifluoromethyl)pyrazolo[1,5-a][1,3,5]triazin-4-amine]"
2,5.09,"CN1CCN(c2nc(NCc3nc4cc(OC(F)(F)F)ccc4[nH]3)n3ncc(Br)c3n2)CC1 [Example 377, 8-bromo-2-(4-methylpiperazin-1-yl)-N-{[5-(trifluoromethoxy)-1H-benzimidazol-2-yl]methyl}pyrazolo[1,5-a][1,3,5]triazin-4-amine]"
3,0.44,"CN(CC(C)(C)O)c1nc(NCc2nc3cc(OC(F)(F)F)ccc3[nH]2)n2ncc(Br)c2n1 [Example 378, 1-{[8-bromo-4-({[5-(trifluoromethoxy)-1H-benzimidazol-2-yl]methyl}amino)pyrazolo[1,5-a][1,3,5]triazin-2-yl](methyl)amino}-2-methylpropan-2-ol]"
4,1.21,"FC(F)(F)c1ccc2[nH]c(CNc3nc(N4CCOCC4)nc4c(C5CC5)cnn34)nc2c1 [Example 322, 8-cyclopropyl-2-(morpholin-4-yl)-N-{[5-(trifluoromethyl)-1H-benzimidazol-2-yl]methyl}pyrazolo[1,5-a][1,3,5]triazin-4-amine]"
5,> 20,"CN1CCCN(c2nc(NCc3nc4ccccc4[nH]3)n3ncc(Br)c3n2)CC1 [Example 390, N-[(1H-benzimidazol-2-yl)methyl]-8-bromo-2-(4-methyl-1,4-diazepan-1-yl)pyrazolo[1,5-a][1,3,5]triazin-4-amine]"
6,3.21,"CCNc1nc(NCc2nc(-c3ccc(C)cc3)c[nH]2)n2ncc(Br)c2n1 [Example 26, 8-bromo-N^2-ethyl-N^4-{[4-(4-methylphenyl)-1H-imidazol-2-yl]methyl}pyrazolo[1,5-a][1,3,5]triazine-2,4-diamine]"
7,6.84,"C[C@H]1CN(C)CCN1c1nc(NCc2nc3c(F)cccc3[nH]2)n2ncc(C(F)(F)F)c2n1 [Example 388, 2-[(2S)-2,4-dimethylpiperazin-1-yl]-N-[(4-fluoro-1H-benzimidazol-2-yl)methyl]-8-(trifluoromethyl)pyrazolo[1,5-a][1,3,5]triazin-4-amine]"
8,0.54,"Clc1cc2nc(CNc3nc(N4CCOCC4)nc4c(Br)cnn34)[nH]c2cc1Cl [Example 329, 8-bromo-N-[(5,6-dichloro-1H-benzimidazol-2-yl)methyl]-2-(morpholin-4-yl)pyrazolo[1,5-a][1,3,5]triazin-4-amine]"
9,2.09,"CN(CC(C)(C)O)c1nc(NCc2nc3c(F)c(F)ccc3[nH]2)n2ncc(Cl)c2n1 [Example 359, 1-[(8-chloro-4-{[(4,5-difluoro-1H-benzimidazol-2-yl)methyl]amino}pyrazolo[1,5-a][1,3,5]triazin-2-yl)(methyl)amino]-2-methylpropan-2-ol]"
10,6.67,"CN(c1nc(NCc2nc3ccccc3[nH]2)n2ncc(Br)c2n1)[C@H]1C[C@@H](O)C1 [Example 364, cis-3-[(4-{[(1H-benzimidazol-2-yl)methyl]amino}-8-bromopyrazolo[1,5-a][1,3,5]triazin-2-yl)(methyl)amino]cyclobutan-1-ol]"
11,4.97,"Brc1cnn2c(NCc3nc4ccccc4[nH]3)nc(N3C[C@H]4CC[C@@H]3CO4)nc12 (single isomer, unassigned) [Example 383, N-[(1H-benzimidazol-2-yl)methyl]-8-bromo-2-{[1R or S-(1R*,4R*)]-2-oxa-5-azabicyclo[2.2.2]octan-5-yl}pyrazolo[1,5-a][1,3,5]triazin-4-amine]"
12,2.93,"CC[C@@H](CO)Nc1nc(NCc2nc3ccccc3[nH]2)n2ncc(Br)c2n1 [Example 367, (2S)-2-[(4-{[(1H-benzimidazol-2-yl)methyl]amino}-8-bromopyrazolo[1,5-a][1,3,5]triazin-2-yl)amino]butan-1-ol]"
13,> 20,"CN1CCC(Oc2nc(NCc3nc4ccccc4[nH]3)n3ncc(Br)c3n2)CC1 [Example 389, N-[(1H-benzimidazol-2-yl)methyl]-8-bromo-2-[(1-methylpiperidin-4-yl)oxy]pyrazolo[1,5-a][1,3,5]triazin-4-amine]"
14,13.1,"CN1CCN(c2nc(NCc3nc4c(F)cccc4[nH]3)n3ncc(Cl)c3n2)CC1.O=CO [Example 362, formic acid 8-chloro-N-[(4-fluoro-1H-benzimidazol-2-yl)methyl]-2-(4-methylpiperazin-1-yl)pyrazolo[1,5-a][1,3,5]triazin-4-amine]"
15,6.7,"Brc1cnn2c(NCc3nc4ccccc4[nH]3)nc(N3C[C@H]4CC[C@@H]3CO4)nc12 (single isomer, unassigned; enantiomer 2) [Example 391, N-[(1H-benzimidazol-2-yl)methyl]-8-bromo-2-{[1R or S-(1R*,4R*)]-2-oxa-5-azabicyclo[2.2.2]octan-5-yl}pyrazolo[1,5-a][1,3,5]triazin-4-amine (Enantiomer 2)]"
16,18.5,"Cc1ccnc2[nH]c(CNc3nc(N4CCN(C)CC4)nc4c(C(C)C)cnn34)nc12 [Example 32, N-[(7-methyl-3H-imidazo[4,5-b]pyridin-2-yl)methyl]-2-(4-methylpiperazin-1-yl)-8-(propan-2-yl)pyrazolo[1,5-a][1,3,5]triazin-4-amine]"
17,7.8,"Brc1cnn2c(NCc3nc4ccccc4[nH]3)nc(N3CCN4CCC3C4)nc12 (stereo not drawn) [Example 350, N-[(1H-benzimidazol-2-yl)methyl]-8-bromo-2-(1,4-diazabicyclo[3.2.1]octan-4-yl)pyrazolo[1,5-a][1,3,5]triazin-4-amine]"
18,0.28,"Fc1cccc(-c2nnc(CNc3nc(N4CCOCC4)nc4c(C(F)(F)F)cnn34)[nH]2)c1 [Example 385, N-{[5-(3-fluorophenyl)-4H-1,2,4-triazol-3-yl]methyl}-2-(morpholin-4-yl)-8-(trifluoromethyl)pyrazolo[1,5-a][1,3,5]triazin-4-amine]"
19,4.56,"FC(F)(F)Oc1cccc2[nH]c(CNc3nc(N4CCOCC4)nc4c(Br)cnn34)nc12 [Example 375, 8-bromo-2-(morpholin-4-yl)-N-{[4-(trifluoromethoxy)-1H-benzimidazol-2-yl]methyl}pyrazolo[1,5-a][1,3,5]triazin-4-amine]"
20,1.43,"Fc1cccc2[nH]c(CNc3nc(N4CCOCC4)nc4c(Cl)cnn34)nc12 [Example 361, 8-chloro-N-[(4-fluoro-1H-benzimidazol-2-yl)methyl]-2-(morpholin-4-yl)pyrazolo[1,5-a][1,3,5]triazin-4-amine]"
21,0.233,"CN(CC(C)(C)O)c1nc(NCc2nc3c(F)c(Cl)ccc3[nH]2)n2ncc(C3CC3)c2n1 [Example 387, 1-[(4-{[(5-chloro-4-fluoro-1H-benzimidazol-2-yl)methyl]amino}-8-cyclopropylpyrazolo[1,5-a][1,3,5]triazin-2-yl)(methyl)amino]-2-methylpropan-2-ol]"
22,4.84,"CC[C@H](CO)Nc1nc(NCc2nc3ccccc3[nH]2)n2ncc(Br)c2n1 [Example 368, (2R)-2-[(4-{[(1H-benzimidazol-2-yl)methyl]amino}-8-bromopyrazolo[1,5-a][1,3,5]triazin-2-yl)amino]butan-1-ol]"
23,9.35,"Brc1cnn2c(NCc3nc4ccccc4[nH]3)nc(N3CC4CCC(C3)O4)nc12 [Example 351, N-[(1H-benzimidazol-2-yl)methyl]-8-bromo-2-(8-oxa-3-azabicyclo[3.2.1]octan-3-yl)pyrazolo[1,5-a][1,3,5]triazin-4-amine]"
24,0.557,"Cc1cc2nc(CNc3nc(N4CCOCC4)nc4c(C5CC5)cnn34)[nH]c2cc1C [Example 320, 8-cyclopropyl-N-[(5,6-dimethyl-1H-benzimidazol-2-yl)methyl]-2-(morpholin-4-yl)pyrazolo[1,5-a][1,3,5]triazin-4-amine]"
25,0.115,"Fc1cc(F)cc(-c2nnc(CNc3nc(N4CCOCC4)nc4c(C(F)(F)F)cnn34)[nH]2)c1 [Example 386, N-{[5-(3,5-difluorophenyl)-4H-1,2,4-triazol-3-yl]methyl}-2-(morpholin-4-yl)-8-(trifluoromethyl)pyrazolo[1,5-a][1,3,5]triazin-4-amine]"
26,> 20,"CN1CCN(c2nc(NCc3nc4c(OC(F)(F)F)cccc4[nH]3)n3ncc(Br)c3n2)CC1 [Example 376, 8-bromo-2-(4-methylpiperazin-1-yl)-N-{[4-(trifluoromethoxy)-1H-benzimidazol-2-yl]methyl}pyrazolo[1,5-a][1,3,5]triazin-4-amine]"

row,SMILES,IC50 [µM]
1,"Brc1cnn2c(NCc3nc4ccccc4[nH]3)nc(N3C[C@H]4CC[C@@H]3CN4)nc12 (single isomer, unassigned) [Example 335, N-[(1H-benzimidazol-2-yl)methyl]-8-bromo-2-{[1R or S-(1R*,4R*)]-2,5-diazabicyclo[2.2.2]octan-2-yl}pyrazolo[1,5-a][1,3,5]triazin-4-amine]",6.65
2,"FC(F)(F)Oc1ccc2[nH]c(CNc3nc(N4C[C@H]5CC[C@@H](C4)N5)nc4c(Br)cnn34)nc2c1 [Example 382, 8-bromo-2-[(1R,5S)-3,8-diazabicyclo[3.2.1]octan-3-yl]-N-{[5-(trifluoromethoxy)-1H-benzimidazol-2-yl]methyl}pyrazolo[1,5-a][1,3,5]triazin-4-amine]",0.823
3,"Fc1cccc2[nH]c(CNc3nc(N4CC5CCC(C4)N5)nc4c(Cl)cnn34)nc12 [Example 363, 8-chloro-2-(3,8-diazabicyclo[3.2.1]octan-3-yl)-N-[(4-fluoro-1H-benzimidazol-2-yl)methyl]pyrazolo[1,5-a][1,3,5]triazin-4-amine]",3.31
4,"FC(F)(F)Oc1cccc2[nH]c(CNc3nc(N4C[C@H]5CC[C@@H](C4)N5)nc4c(Br)cnn34)nc12 [Example 381, 8-bromo-2-[(1R,5S)-3,8-diazabicyclo[3.2.1]octan-3-yl]-N-{[4-(trifluoromethoxy)-1H-benzimidazol-2-yl]methyl}pyrazolo[1,5-a][1,3,5]triazin-4-amine]",5.91

# Reference: patent publication US20230117034A1, “PYRAZOLOTRIAZINES” (Bayer Aktiengesellschaft, priority 2019, published 2023)
